From ChEMBL document CHEMBL1152085, “Novel 3-deoxy-3-descladinosyl-6-O-methyl erythromycin a analogues. Synthesis and in vitro activity” (1997)
≈ marks a conversion by molar mass, not a printed value.

What was measured:
Assay type in all cases: functional
[1] = test system: Enterococcus faecium; experiment: Tested in vitro for minimum inhibitory concentration to produce antibacterial activity against Enterococcus faecium ATCC 8043
[2] = test system: Enterococcus faecium; experiment: Tested in vitro for minimum inhibitory concentration to produce antibacterial activity against Enterococcus faecium ATCC 8043 in presence of erythromycin A
[3] = test system: Escherichia coli; experiment: Tested in vitro for minimum inhibitory concentration to produce antibacterial activity against Escherichia coli JUHL
[4] = test system: Escherichia coli; experiment: Tested in vitro for minimum inhibitory concentration to produce antibacterial activity against Escherichia coli JUHL in presence of erythromycin A
[5] = test system: Escherichia coli; experiment: Tested in vitro for minimum inhibitory concentration to produce antibacterial activity against Escherichia coli SS
[6] = test system: Escherichia coli; experiment: Tested in vitro for minimum inhibitory concentration to produce antibacterial activity against Escherichia coli SS in presence of erythromycin A
[7] = test system: Staphylococcus epidermidis; experiment: Tested in vitro for minimum inhibitory concentration to produce antibacterial activity against Staphylococcus epidermidis 3519
[8] = test system: Staphylococcus epidermidis; experiment: Tested in vitro for minimum inhibitory concentration to produce antibacterial activity against Staphylococcus epidermidis 3519 in presence of erythromycin A
[9] = test system: Streptococcus pyogenes; experiment: Tested in vitro for minimum inhibitory concentration to produce antibacterial activity against Streptococcus pyogenes 930
[10] = test system: Streptococcus pyogenes; experiment: Tested in vitro for minimum inhibitory concentration to produce antibacterial activity against Streptococcus pyogenes 930 in presence of erythromycin A
[11] = test system: Streptococcus pyogenes; experiment: Tested in vitro for minimum inhibitory concentration to produce antibacterial activity against Streptococcus pyogenes EES61
[12] = test system: Streptococcus pyogenes; experiment: Tested in vitro for minimum inhibitory concentration to produce antibacterial activity against Streptococcus pyogenes EES61 in presence of erythromycin A
[13] = test system: Streptococcus pyogenes; experiment: Tested in vitro for minimum inhibitory concentration to produce antibacterial activity against Streptococcus pyogenes PIU 2548
[14] = test system: Streptococcus pyogenes; experiment: Tested in vitro for minimum inhibitory concentration to produce antibacterial activity against Streptococcus pyogenes PIU 2548 in presence of erythromycin A
[15] = test system: Streptococcus agalactiae; experiment: Tested in vitro for minimum inhibitory concentration to produce antibacterial activity against Streptococcus agalactiae CMX 508
[16] = test system: Streptococcus agalactiae; experiment: Tested in vitro for minimum inhibitory concentration to produce antibacterial activity against Streptococcus agalactiae CMX 508 in presence of erythromycin A
[17] = test system: Staphylococcus aureus; experiment: Tested in vitro for minimum inhibitory concentration to produce antibacterial activity against Staphylococcus aureus 1775
[18] = test system: Staphylococcus aureus; experiment: Tested in vitro for minimum inhibitory concentration to produce antibacterial activity against Staphylococcus aureus 1775 in presence of erythromycin A
[19] = test system: Staphylococcus aureus; experiment: Tested in vitro for minimum inhibitory concentration to produce antibacterial activity against Staphylococcus aureus A-5278
[20] = test system: Staphylococcus aureus; experiment: Tested in vitro for minimum inhibitory concentration to produce antibacterial activity against Staphylococcus aureus A-5278 in presence of erythromycin A
[21] = test system: Staphylococcus aureus; experiment: Tested in vitro for minimum inhibitory concentration to produce antibacterial activity against Staphylococcus aureus A5177
[22] = test system: Staphylococcus aureus; experiment: Tested in vitro for minimum inhibitory concentration to produce antibacterial activity against Staphylococcus aureus A5177 in presence of erythromycin A
[23] = test system: Staphylococcus aureus; experiment: Tested in vitro for minimum inhibitory concentration to produce antibacterial activity against Staphylococcus aureus ATCC 6538P
[24] = test system: Staphylococcus aureus; experiment: Tested in vitro for minimum inhibitory concentration to produce antibacterial activity against Staphylococcus aureus ATCC 6538P in presence of erythromycin A
[25] = test system: Staphylococcus aureus; experiment: Tested in vitro for minimum inhibitory concentration to produce antibacterial activity against Staphylococcus aureus CMX 553
[26] = test system: Staphylococcus aureus; experiment: Tested in vitro for minimum inhibitory concentration to produce antibacterial activity against Staphylococcus aureus CMX 553 in presence of erythromycin A
[27] = test system: Staphylococcus aureus; experiment: Tested in vitro for minimum inhibitory concentration to produce antibacterial activity against Staphylococcus aureus CMX 642A
[28] = test system: Staphylococcus aureus; experiment: Tested in vitro for minimum inhibitory concentration to produce antibacterial activity against Staphylococcus aureus CMX 642A in presence of erythromycin A
[29] = test system: Streptococcus equinus; experiment: Tested in vitro for minimum inhibitory concentration to produce antibacterial activity against Streptococcus bovis A-5169
[30] = test system: Streptococcus equinus; experiment: Tested in vitro for minimum inhibitory concentration to produce antibacterial activity against Streptococcus bovis A-5169 in presence of erythromycin A
[31] = test system: Staphylococcus aureus; experiment: Tested in vitro for minimum inhibitory concentration to produce antibacterial activity against Staphylococcus aureus NCTC-10649M
[32] = test system: Staphylococcus aureus; experiment: Tested in vitro for minimum inhibitory concentration to produce antibacterial activity against Staphylococcus aureus NCTC-10649M in presence of erythromycin A

| Compound | MIC [1] | MIC [2] | MIC [3] | MIC [4] | MIC [5] | MIC [6] | MIC [7] | MIC [8] | MIC [9] | MIC [10] | MIC [11] | MIC [12] | MIC [13] | MIC [14] | MIC [15] | MIC [16] | MIC [17] | MIC [18] | MIC [19] | MIC [20] | further results |
| --- | --- | --- | --- | --- | --- | --- | --- | --- | --- | --- | --- | --- | --- | --- | --- | --- | --- | --- | --- | --- | --- |
| CC[C@H]1OC(=O)[C@H](C)[C@@H](OC(=S)SC)[C@H](C)[C@@H](O[C@@H]2O[C@H](C)C[C@H](N(C)C)[C@H]2O)[C@](C)(OC)C[C@@H](C)C(=O)[C@H](C)[C@@H](O)[C@]1(C)O | 6.2 µg/mL (≈ 9.12 µM) | 0.05 µg/mL | > 100 µg/mL | 50 µg/mL | 0.39 µg/mL (≈ 0.574 µM) | 0.2 µg/mL | 25 µg/mL (≈ 36.8 µM) | 0.2 µg/mL | 100 µg/mL (≈ 147 µM) | > 100 µg/mL | 0.78 µg/mL (≈ 1.15 µM) | 0.02 µg/mL | 1.56 µg/mL (≈ 2.29 µM) | 6.2 µg/mL | 0.78 µg/mL (≈ 1.15 µM) | 0.02 µg/mL | > 100 µg/mL | > 100 µg/mL | > 100 µg/mL | > 100 µg/mL | MIC [21]: 25 µg/mL (≈ 36.8 µM); MIC [22]: 3.1 µg/mL; MIC [23]: 25 µg/mL (≈ 36.8 µM); MIC [24]: 0.2 µg/mL; MIC [25]: 25 µg/mL (≈ 36.8 µM); MIC [26]: 0.2 µg/mL; MIC [27]: 25 µg/mL (≈ 36.8 µM); MIC [28]: 0.2 µg/mL; MIC [29]: 0.39 µg/mL (≈ 0.574 µM); MIC [30]: 0.02 µg/mL; MIC [31]: 12.5 µg/mL (≈ 18.4 µM); MIC [32]: 0.2 µg/mL |
| CCO/N=C1\[C@H](C)C[C@@](C)(OC)[C@H](O[C@@H]2O[C@H](C)C[C@H](N(C)C)[C@H]2O)[C@@H](C)C[C@@H](C)C(=O)O[C@H](CC)[C@@](C)(O)[C@H](O)[C@H]1C | 25 µg/mL (≈ 40.5 µM) | 0.05 µg/mL | > 100 µg/mL | 25 µg/mL | 3.1 µg/mL (≈ 5.03 µM) | 0.2 µg/mL | 25 µg/mL (≈ 40.5 µM) | 0.39 µg/mL | > 100 µg/mL | > 100 µg/mL | 3.1 µg/mL (≈ 5.03 µM) | 0.02 µg/mL | 25 µg/mL (≈ 40.5 µM) | 3.1 µg/mL | 3.1 µg/mL (≈ 5.03 µM) | 0.1 µg/mL | > 100 µg/mL | > 100 µg/mL | > 100 µg/mL | > 100 µg/mL | MIC [21]: 25 µg/mL (≈ 40.5 µM); MIC [22]: 3.1 µg/mL; MIC [23]: 25 µg/mL (≈ 40.5 µM); MIC [24]: 0.39 µg/mL; MIC [25]: 50 µg/mL (≈ 81.1 µM); MIC [26]: 0.39 µg/mL; MIC [27]: 50 µg/mL (≈ 81.1 µM); MIC [28]: 0.39 µg/mL; MIC [29]: 3.1 µg/mL (≈ 5.03 µM); MIC [30]: 0.01 µg/mL; MIC [31]: 12.5 µg/mL (≈ 20.3 µM); MIC [32]: 0.39 µg/mL |
